# Experimental data reported in US20080004302A1, “Novel Compounds” (ASTRAZENECA AB, priority 2006, published 2008).
# Counter-ions that a name gives are not always drawn.
# Experiments:
# FGFR1 kinase = FGFR1 kinase (Homo sapiens, UniProt P11362); assay: Kinase assay (using Caliper technology); assay type: biochemical; settings: FGFR1 kinase, Caliper; upper bound of bin; read-out: IC50
# Method in brief: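 Human FGFR1 kinase activity measured with a 13-mer fluorescently tagged FGFR1-specific peptide substrate; compounds serially diluted in 5% (v/v) DMSO. Reactions ran 1.5 h at room temperature, stopped with EDTA-containing HEPES pH 7.5 buffer. Phosphorylated and unphosphorylated peptide separated by microfluidic mobility shift.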
# FGFR1 IIIc [1] = biological target: T1, FGFR1 IIIc (Homo sapiens, UniProt P11362); assay: Cell based inhibition of transiently expressed FGFR1 IIIc phosphorylation (Cos-1 cells); settings: Cos-1 cells, phospho-FGFR1; upper bound of bin; read-out: IC50
# T1 construct: host or cells: Cos-1
# T1 sequence (P11362 22-822): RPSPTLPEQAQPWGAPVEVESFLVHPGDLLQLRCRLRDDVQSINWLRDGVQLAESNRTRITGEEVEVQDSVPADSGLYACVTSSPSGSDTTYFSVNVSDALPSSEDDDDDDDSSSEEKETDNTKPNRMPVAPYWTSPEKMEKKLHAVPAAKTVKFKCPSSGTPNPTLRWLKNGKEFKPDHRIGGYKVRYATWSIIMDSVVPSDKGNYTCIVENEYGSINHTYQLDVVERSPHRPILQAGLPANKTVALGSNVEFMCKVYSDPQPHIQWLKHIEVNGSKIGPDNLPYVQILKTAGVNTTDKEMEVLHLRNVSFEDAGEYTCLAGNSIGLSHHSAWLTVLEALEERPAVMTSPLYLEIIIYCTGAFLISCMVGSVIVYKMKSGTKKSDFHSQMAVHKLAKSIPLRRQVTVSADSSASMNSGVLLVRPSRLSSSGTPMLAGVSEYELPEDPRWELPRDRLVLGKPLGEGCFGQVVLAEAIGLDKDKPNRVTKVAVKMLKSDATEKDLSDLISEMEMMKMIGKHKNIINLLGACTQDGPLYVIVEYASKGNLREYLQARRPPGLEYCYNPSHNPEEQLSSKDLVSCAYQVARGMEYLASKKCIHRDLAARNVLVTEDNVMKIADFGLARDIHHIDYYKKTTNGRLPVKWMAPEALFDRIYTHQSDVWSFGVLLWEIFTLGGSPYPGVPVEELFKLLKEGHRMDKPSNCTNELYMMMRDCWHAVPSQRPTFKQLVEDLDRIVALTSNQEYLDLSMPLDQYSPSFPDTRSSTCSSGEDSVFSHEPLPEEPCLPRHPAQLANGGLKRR
# Method: This assay is designed to detect inhibitors of transiently expressed FGFR1 phosphorylation by antibody staining of fixed cells detected using ArrayScan technology.
# To undertake the assay, Cos-1 cells were harvested at 90-95% confluence for cell transfection. For each 96-well plate, 24 ul Lipofectamine 2000 was added to 809 ul OptiMEM and incubated at room temperature for 5 minutes. […] Equal volumes of DNA and Lipofectamine 2000 were combined (DNA: Lipid=1:1.2 ratio) and incubated at room temperature for 20 minutes.
# The harvested Cos-1 cells are counted using a coulter counter and diluted further with 1% FCS/DMEM to 2.5×10^5 cells/ml. For each 96-well, 8.33 ml cells were required. […] Media was removed from the wells using vacuum aspiration; cells were fixed by adding 50μl of 100% methanol to each well and incubated at room temperature for 20 minutes.
# The plates were read on an Arrayscan (Cellomics).
# FGFR1 IIIc [2] = biological target: T1, FGFR1 IIIc; assay: Cell based inhibition of transiently expressed FGFR1 IIIc phosphorylation via use of ECHO technology (Cos-1 cells); settings: Cos-1 cells, phospho-FGFR1, ECHO dosing; upper bound of bin; read-out: IC50
# human IGF1R = biological target: T2, human IGF1R (Homo sapiens, UniProt P08069); assay: Inhibition of insulin-like growth factor-1 receptor phosphorylation in R+ cells; assay type: cell-based; settings: 30 nM IGF1, read-out: IGF cell class
# T2 construct: expressed in transfected cells; host or cells: R+ cells (R- mouse fibroblasts transfected with human IGF1R)
# T2 sequence (P08069 31-1367): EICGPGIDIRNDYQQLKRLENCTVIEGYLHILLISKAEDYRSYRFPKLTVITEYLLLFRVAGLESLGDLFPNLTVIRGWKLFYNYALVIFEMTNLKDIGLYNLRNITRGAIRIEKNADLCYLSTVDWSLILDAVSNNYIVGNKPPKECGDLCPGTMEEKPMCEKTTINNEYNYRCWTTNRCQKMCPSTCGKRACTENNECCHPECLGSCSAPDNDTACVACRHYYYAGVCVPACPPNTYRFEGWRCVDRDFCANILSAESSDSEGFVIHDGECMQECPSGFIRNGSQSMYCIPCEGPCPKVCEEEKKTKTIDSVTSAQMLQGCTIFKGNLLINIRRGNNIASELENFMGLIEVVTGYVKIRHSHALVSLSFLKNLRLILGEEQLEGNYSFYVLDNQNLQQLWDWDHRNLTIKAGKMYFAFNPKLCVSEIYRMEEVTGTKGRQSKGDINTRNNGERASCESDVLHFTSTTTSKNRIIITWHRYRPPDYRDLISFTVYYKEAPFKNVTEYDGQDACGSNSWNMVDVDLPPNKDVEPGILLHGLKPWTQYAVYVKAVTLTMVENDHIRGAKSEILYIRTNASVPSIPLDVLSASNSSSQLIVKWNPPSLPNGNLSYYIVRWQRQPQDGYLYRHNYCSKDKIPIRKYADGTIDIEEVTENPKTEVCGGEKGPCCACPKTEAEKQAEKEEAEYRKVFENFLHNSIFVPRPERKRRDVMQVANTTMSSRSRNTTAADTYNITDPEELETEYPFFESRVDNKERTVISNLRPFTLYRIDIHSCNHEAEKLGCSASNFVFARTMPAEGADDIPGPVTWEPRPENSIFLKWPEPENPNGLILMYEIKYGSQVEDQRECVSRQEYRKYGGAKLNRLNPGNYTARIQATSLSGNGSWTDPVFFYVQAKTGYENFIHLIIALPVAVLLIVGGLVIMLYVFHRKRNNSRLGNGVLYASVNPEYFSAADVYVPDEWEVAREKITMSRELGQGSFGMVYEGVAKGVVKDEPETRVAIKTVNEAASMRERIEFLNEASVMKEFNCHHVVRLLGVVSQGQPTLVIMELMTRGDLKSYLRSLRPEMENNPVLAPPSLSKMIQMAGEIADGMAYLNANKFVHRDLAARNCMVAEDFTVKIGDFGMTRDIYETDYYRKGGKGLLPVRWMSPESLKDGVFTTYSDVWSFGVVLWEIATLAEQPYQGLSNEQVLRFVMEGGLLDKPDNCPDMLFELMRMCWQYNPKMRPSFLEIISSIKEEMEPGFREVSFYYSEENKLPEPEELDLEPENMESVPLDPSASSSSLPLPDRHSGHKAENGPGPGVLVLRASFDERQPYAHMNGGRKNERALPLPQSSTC
# Erk phosphorylation = assay: Growth factor (bFGF) stimulated Erk phosphorylation in NIH 3T3 cells; settings: Mus musculus
# From the text: These and other assays were used to evaluate the ability of a test compound to inhibit growth factor stimulated cellular signalling in mammalian cell lines. This was achieved by measuring the amount of receptor tyrosine kinase regulated Erk phosphorylation within a cell following compound treatment.
# NIH 3T3 (ECACC, 93061524) cells were routinely passaged in DMEM (Gibco BRL, 41966) plus 10% foetal calf serum (FCS), 1% L-glutamine (Gibco BRL, 25030) to a confluence not greater than 80%. To undertake the assay, NIH 3T3's were seeded at 1×10^4 cells/well in DMEM plus 10% foetal calf serum, 1% L-glutamine in 96 well plates (Costar, 3904) and incubated at 37° C. (+5% CO2) in a humidified incubator. Once the cells had fully adhered (typically following 4-5 hours incubation) the media was removed from each well and the cells gently washed with 100μl warm serum free media. 90μl of serum free DMEM plus 1% L-glutamine was then added to each well and the plates were returned to a humidified 37° C. (+5% CO2) incubator. The following day, the plates were dosed with 10[l compound (diluted from 10 mM stock in DMSO using serum free DMEM) and the plates were returned to a humidified 37° C. (+5% CO2) incubator for one hour. NIH 3T3 cells were then stimulated with a final concentration of 3 ng/ml bFGF (Sigma, F029 1) for 20 minutes at 37° C. Following stimulation the cells were fixed by adding formaldehyde (4% v/v final concentration) and incubating at room temperature for 20 minutes. The fixative solution was then removed and the wells were washed twice with 100μl phosphate buffered saline (PBS/A) before permeabilising the cells by the addition of 50 μl/well 0.1% triton/PBS/A for 10 minutes at room temperature. The permeabilisation solution was then removed and the cells washed twice more with 100 μl/well PBS/A before the addition of 50 μl/well anti-phospho p44/42 (Cell Signalling Technology, 9106), diluted 1/500 with PBS/A plus 10% FCS. The anti-phospho p44/42 antibody recognises Erk phosphorylated at threonine 202 and tyrosine 204. […] Finally, the plates were washed three times with 100 μl/well PBS/A, leaving the final wash in the wells before sealing the plates. The plates were read at 350 nm and 488 nm using an Arrayscan (Cellomics).
# [3] = NIH3T3, NIH 3T3 cells, 3 ng/ml bFGF, upper bound of bin
# Chain of FGFR1 kinase (P11362 22-822): as the sequence (P11362 22-822) above
smiles,measurement,setting,value
"c1cc(Nc2cc(C3CCCC3)[nH]n2)nc(NCc2cc(C3CC3)no2)n1 [Example 14, N′-(5-cyclopentyl-2H-pyrazol-3-yl)-N-[(3-cyclopropyl-1,2-oxazol-5-yl)methyl]pyrimidine-2,4-diamine]",IC50,FGFR1 kinase,< 0.2 µM
same,IC50,FGFR1 IIIc [1],< 0.2 µM
same,IC50,FGFR1 IIIc [2],< 0.2 µM
"CC(C)Cc1cc(Nc2ccnc(NCc3cc(C4CC4)no3)n2)n[nH]1 [Example 16, N-[(3-cyclopropyl-1,2-oxazol-5-yl)methyl]-N′-[5-(2-methylpropyl)-2H-pyrazol-3-yl]pyrimidine-2,4-diamine]",IC50,FGFR1 kinase,< 0.2 µM
same,IC50,FGFR1 IIIc [1],< 1 µM
same,IC50,FGFR1 IIIc [2],< 0.2 µM
"COc1ccccc1CCc1cc(Nc2ccnc(NCc3cc(C)no3)n2)n[nH]1 [Example 31, N′-[5-[2-(2-methoxyphenyl)ethyl]-1H-pyrazol-3-yl]-N-[(3-methyl1,2-oxazol-5-yl)methyl]pyrimidine-2,4-diamine hydrochloride]",IC50,FGFR1 kinase,< 1 µM
same,IC50,FGFR1 IIIc [1],< 10 µM
same,IC50,human IGF1R,> 10 µM
same,IC50,Erk phosphorylation; [3],< 10 µM
"Cc1cc(CNc2nccc(Nc3cc(COc4ccccc4)[nH]n3)n2)on1 [Example 34, N-[(3-methyl-1,2-oxazol-5-yl)methyl]-N′-[5-(phenoxymethyl)-2H-pyrazol-3-yl]pyrimidine-2,4-diamine]",IC50,FGFR1 kinase,< 10 µM
same,IC50,FGFR1 IIIc [1],< 10 µM
same,IC50,human IGF1R,> 10 µM
same,IC50,Erk phosphorylation; [3],< 10 µM
"Cc1cc(CNc2nccc(Nc3cc(CCc4cccc(OCc5ccccc5)c4)n[nH]3)n2)on1 [Example 38, N-[(3-methyl1,2-oxazol-5-yl)methyl]-N′-[5-[2-(3-phenylmethoxyphenyl)ethyl]-2H-pyrazol-3-yl]pyrimidine-2,4-diamine]",IC50,FGFR1 kinase,< 10 µM
same,IC50,FGFR1 IIIc [1],< 10 µM
same,IC50,human IGF1R,0.1 to 1 µM
same,IC50,Erk phosphorylation; [3],< 1 µM
"Cc1cc(CNc2nccc(Nc3cc(CCc4ccccc4OCc4ccccc4)[nH]n3)n2)on1 [Example 39, N-[(3-methyl1,2-oxazol-5-yl)methyl]-N′-[5-[2-(2-phenylmethoxyphenyl)ethyl]-1H-pyrazol-3-yl]pyrimidine-2,4-diamine hydrochloride]",IC50,FGFR1 kinase,< 10 µM
same,IC50,FGFR1 IIIc [1],< 10 µM
same,IC50,human IGF1R,> 10 µM
same,IC50,Erk phosphorylation; [3],< 1 µM
"COCCOc1cccc(CCc2cc(Nc3ccnc(NCc4cc(C)no4)n3)n[nH]2)c1 [Example 40, N′-[5-[2-[3-(2-methoxyethoxy)phenyl]ethyl]-2H-pyrazol-3-yl]-N-[(3-methyl1,2-oxazol-5-yl)methyl]pyrimidine-2,4-diamine]",IC50,FGFR1 kinase,< 1 µM
same,IC50,FGFR1 IIIc [1],< 10 µM
same,IC50,human IGF1R,1 to 10 µM
same,IC50,Erk phosphorylation; [3],< 1 µM
"Cc1cc(CNc2nccc(Nc3cc(CCc4cc(O)cc(O)c4)[nH]n3)n2)on1 [Example 43, 5-[2-[5-[[2-[(3-methyl1,2-oxazol-5-yl)methylamino]pyrimidin-4-yl]amino]-1H-pyrazol-3-yl]ethyl]benzene-1,3-diol]",IC50,FGFR1 kinase,< 0.2 µM
same,IC50,FGFR1 IIIc [1],< 10 µM
same,IC50,human IGF1R,> 10 µM
same,IC50,Erk phosphorylation; [3],< 1 µM
"COc1ccc(CCc2cc(Nc3ccnc(NCc4cc(C)no4)n3)n[nH]2)cc1OC [Example 46, N′-[5-[2-(3,4-dimethoxyphenyl)ethyl]-1H-pyrazol-3-yl]-N-[(3-methyl1,2-oxazol-5-yl)methyl]pyrimidine-2,4-diamine hydrochloride]",IC50,FGFR1 IIIc [1],< 10 µM
same,IC50,human IGF1R,1 to 10 µM
same,IC50,Erk phosphorylation; NIH3T3,< 10 µM
"COc1ccc(CCc2cc(Nc3ccnc(NCc4cc(C)no4)n3)n[nH]2)c(C)c1 [Example 47, N′-[5-[2-(4-methoxy-2-methyl-phenyl)ethyl]-2H-pyrazol-3-yl]-N-[(3-methyl1,2-oxazol-5-yl)methyl]pyrimidine-2,4-diamine]",IC50,FGFR1 kinase,< 1 µM
same,IC50,FGFR1 IIIc [1],< 1 µM
same,IC50,human IGF1R,1 to 10 µM
same,IC50,Erk phosphorylation; [3],< 1 µM
"Cc1cc(CNc2nccc(Nc3cc(CCc4cccc(C#N)c4)[nH]n3)n2)on1 [Example 48, 3-[2-[5-[[2-[(3-methyl-1,2-oxazol-5-yl)methylamino]pyrimidin-4-yl]amino]-2H-pyrazol-3-yl]ethyl]benzonitrile]",IC50,FGFR1 kinase,< 1 µM
same,IC50,FGFR1 IIIc [1],< 10 µM
same,IC50,human IGF1R,> 10 µM
same,IC50,Erk phosphorylation; [3],< 10 µM
"Oc1cccc(CCc2cc(Nc3ccnc(NCc4cc(C5CC5)no4)n3)n[nH]2)c1 [Example 56, 3-[2-[5-[[2-[(3-cyclopropyl-1,2-oxazol-5-yl)methylamino]pyrimidin-4-yl]amino]-1H-pyrazol-3-yl]ethyl]phenol]",IC50,FGFR1 kinase,< 0.2 µM
same,IC50,FGFR1 IIIc [1],< 0.2 µM
same,IC50,FGFR1 IIIc [2],< 0.2 µM
same,IC50,human IGF1R,1 to 10 µM
"Cc1cc(CNc2nccc(Nc3cc(CCc4cc(F)cc(Cl)c4)[nH]n3)n2)on1 [Example 57, N′-[5-[2-(3-chloro-5-fluoro-phenyl)ethyl]-2H-pyrazol-3-yl]-N-[(3-methyl-1,2-oxazol-5-yl)methyl]pyrimidine-2,4-diamine]",IC50,FGFR1 kinase,< 1 µM
same,IC50,FGFR1 IIIc [1],< 0.2 µM
same,IC50,FGFR1 IIIc [2],< 1 µM
"Cc1cc(CNc2nccc(Nc3cc(CCc4cccc(CN)c4)[nH]n3)n2)on1 [Example 58, N′-[5-[2-[3-(aminomethyl)phenyl]ethyl]-1H-pyrazol-3-yl]-N-[(3-methyl-1,2-oxazol-5-yl)methyl]pyrimidine-2,4-diamine]",IC50,FGFR1 kinase,< 1 µM
same,IC50,FGFR1 IIIc [1],< 30 µM
same,IC50,FGFR1 IIIc [2],< 30 µM
"Cc1cc(CNc2nccc(Nc3cc(CCc4cccc(C(=O)N(C)C)c4)[nH]n3)n2)on1 [Example 59, N,N-dimethyl-3-[2-[5-[[2-[(3-methyl-1,2-oxazol-5-yl)methylamino]pyrimidin-4-yl]amino]-2H-pyrazol-3-yl]ethyl]benzamide]",IC50,FGFR1 kinase,< 1 µM
same,IC50,FGFR1 IIIc [1],< 30 µM
same,IC50,FGFR1 IIIc [2],< 30 µM
"COc1cc(CCc2cc(Nc3ccnc(NCc4cc(C)no4)n3)n[nH]2)c(F)cn1 [Example 62, N′-[5-[2-(5-fluoro-2-methoxy-pyridin-4-yl)ethyl]-1H-pyrazol-3-yl]-N-[(3-methyl-1,2-oxazol-5-yl)methyl]pyrimidine-2,4-diamine hydrochloride]",IC50,FGFR1 kinase,< 1 µM
same,IC50,FGFR1 IIIc [1],< 1 µM
same,IC50,FGFR1 IIIc [2],< 1 µM
same,IC50,human IGF1R,> 10 µM
"CN(C)Cc1cc(CNc2nccc(Nc3cc(CCc4cccc(O)c4)n[nH]3)n2)on1 [Example 63, 3-[2-[5-[[2-[[3-(dimethylaminomethyl)-1,2-oxazol-5-yl]methylamino]pyrimidin-4-yl]amino]-1H-pyrazol-3-yl]ethyl]phenol]",IC50,FGFR1 kinase,< 0.2 µM
same,IC50,FGFR1 IIIc [1],< 10 µM
same,IC50,FGFR1 IIIc [2],< 10 µM
"CNC(=O)c1cc(CNc2nccc(Nc3cc(CCc4cccc(OC)c4)n[nH]3)n2)on1 [Example 64, 5-[[[4-[[5-[2-(3-methoxyphenyl)ethyl]-2H-pyrazol-3-yl]amino]pyrimidin-2-yl]amino]methyl]-N-methyl-1,2-oxazole-3-carboxamide]",IC50,FGFR1 kinase,< 1 µM
same,IC50,FGFR1 IIIc [1],< 10 µM
same,IC50,FGFR1 IIIc [2],< 10 µM
"CNC(=O)c1cc(CNc2nccc(Nc3cc(CCc4cccc(O)c4)n[nH]3)n2)on1 [Example 65, 5-[[[4-[[5-[2-(3-hydroxyphenyl)ethyl]-2H-pyrazol-3-yl]amino]pyrimidin-2-yl]amino]methyl]-N-methyl-1,2-oxazole-3-carboxamide]",IC50,FGFR1 kinase,< 0.2 µM
same,IC50,FGFR1 IIIc [1],< 10 µM
same,IC50,FGFR1 IIIc [2],< 10 µM
same,IC50,human IGF1R,1 to 10 µM
"CC(C)Oc1cc(Nc2ccnc(NCc3cc(C(N)=O)no3)n2)[nH]n1 [Example 78, 5-[[[4-[(5-propan-2-yloxy-2H-pyrazol-3-yl)amino]pyrimidin-2-yl]amino]methyl]-1,2-oxazole-3-carboxamide]",IC50,FGFR1 kinase,< 0.2 µM
same,IC50,FGFR1 IIIc [1],< 10 µM
same,IC50,Erk phosphorylation; [3],< 1 µM
"CC(C)Oc1cc(Nc2ccnc(NCc3cc(C4CCC4)no3)n2)n[nH]1 [Example 102, N-[(3-cyclobutyl-1,2-oxazol-5-yl)methyl]-N′-(5-propan-2-yloxy-1H-pyrazol-3-yl)pyrimidine-2,4-diamine]",IC50,FGFR1 kinase,< 0.2 µM
same,IC50,FGFR1 IIIc [1],< 0.2 µM
same,IC50,FGFR1 IIIc [2],< 0.2 µM
same,IC50,human IGF1R,0.1 to 1 µM
"c1ccc(COc2cc(Nc3ccnc(NCc4cc(C5CC5)no4)n3)n[nH]2)cc1 [Example 103, N-[(3-cyclopropyl-1,2-oxazol-5-yl)methyl]-N′-(5-phenylmethoxy-2H-pyrazol-3-yl)pyrimidine-2,4-diamine]",IC50,FGFR1 kinase,< 0.2 µM
same,IC50,FGFR1 IIIc [1],< 0.2 µM
same,IC50,FGFR1 IIIc [2],< 0.2 µM
same,IC50,human IGF1R,1 to 10 µM
"Cc1cc(CNc2nccc(Nc3cc(OCc4ccoc4)[nH]n3)n2)on1 [Example 108, N′-[5-(3-furylmethoxy)-1H-pyrazol-3-yl]-N-[(3-methyl1,2-oxazol-5-yl)methyl]pyrimidine-2,4-diamine]",IC50,FGFR1 kinase,< 0.2 µM
same,IC50,FGFR1 IIIc [1],< 10 µM
same,IC50,Erk phosphorylation; [3],< 1 µM
"c1coc(-c2cc(Nc3ccnc(NCc4cc(C5CC5)no4)n3)n[nH]2)c1 [Example 120, N-[(3-cyclopropyl-1,2-oxazol-5-yl)methyl]-N′-[5-(2-furyl)-2H-pyrazol-3-yl]pyrimidine-2,4-diamine]",IC50,FGFR1 kinase,< 0.2 µM
same,IC50,FGFR1 IIIc [1],< 1 µM
same,IC50,FGFR1 IIIc [2],< 0.2 µM
same,IC50,human IGF1R,1 to 10 µM
